# Experimental data reported in US9850207B2, “Substituted piperidines as soluble epdxide hydrolase inhibitors” (The Regents of the University of California, priority 2012, dated 2017).
# System: streptozocin (STZ)-induced type I diabetes model of neuropathic pain
# Assay: streptozocin (STZ)-induced type I diabetes model of neuropathic pain (von Frey mechanical withdrawal threshold)
# Assay type: in vivo
# Settings: rats, 10 mpk, as compared to 10 mpk of celecoxib; average of 6 rats (FIG. 3)
# Protocol: Diabetic neuropathic pain was modeled using streptozocin which targets and kills the pancreatic beta islet cells rendering the animals with type I diabetes. The rats were acclimated for one hour and tested for baseline thresholds before inducing diabetes. The baseline mechanical withdrawal thresholds were established using the von Frey mechanical nociceptive test with an electronic anesthesiometer (IITC, Woodland Hills, Calif.). Subsequently, streptozocin (55 mg/kg) in saline was injected via tail vein per previously reported methods (Aley, K. O. and Levine J. D. J. Pain 2001, 2, 146.). After five days the allodynia of diabetic rats was confirmed with the von Frey nociceptive assay. Rats were placed in clear acrylic chambers on a steel mesh floor. The hind paw of the rat was probed through the mesh with a rigid tip probe connected to the electronic readout pressure meter set to the maximum hold setting. The withdrawal thresholds per rat were measured 3-5 times at 1 minute intervals for each time point.
# The baseline diabetic allodynia was quantified again at the beginning of all test days. The rats were then administered vehicle or sEH inhibitor via oral gavage and tested at 30 min. 1, 2, 3, 4, 5, and 6 h for mechanical withdrawal thresholds. […]
compound,measurement,value
CC(=O)N1CCC(NC(=O)NC23CC4CC(CC(C4)C2)C3)CC1 [UC1153],"pain response (% of baseline; below 60% of baseline is painful state, 100% is lack of enhanced pain detection)",significantly alleviate the pain response
